In one assay the target is T1, LSD1 (Homo sapiens, UniProt O60341).
T1 construct: purchased Cayman Chemical Company 700120
Nature of the assay: LSD1 histone demethylase assay (LSD1 Inhibitor Screening Assay Kit, Cayman). It is filed as biochemical. How it is done: Recombinant (expressed in baculovirus infected BTI insect cells) monoamine oxidase A and monoamine oxidase B (Catalog No. M7316 and M7441, respectively) were purchased from Sigma-Aldrich Co. LLC. (St. Louis, Mo.). MAO-Glo™ Assay Kit was purchased from Promega Corporation (Madison, Wis.). ATPlite™ Luminescence Assay System (e.g. Catalog No. V1401) was purchased from PerkinElmer Inc. (Waltham, Mass.).
Briefly, test compounds were diluted to 20× the desired test concentration in 100% DMSO and 2.5 μL of the diluted test sample was added to a black 384-well plate. The LSD1 enzyme stock was diluted 17-fold with assay buffer, and 40 μL of the diluted LSD1 enzyme was added to the appropriate wells. Substrate, consisting of horseradish peroxidase, dimethyl K4 peptide corresponding to the first 21 amino acids of the N-terminal tail of histone H3, and 10-acetyl-3,7-dihydroxyphenoxazine was then added to wells. Resorufin was analyzed on an Envision plate reader with an excitation wavelength of 530 nm and an emission wavelength of 595 nm.
IC50 values are determined using GraphPad Prism 5 software. The data were entered as an X-Y plot into the software as percent inhibition for each concentration of the drug. The concentration values of the drug were log transformed and the nonlinear regression was carried out using the “sigmoidal dose-response (variable slope)” option within the GraphPad software to model the data and calculate IC50 values.

The next assay concerns the target T2, LSD2 (Homo sapiens, UniProt Q8NB78).
T2 sequence (Q8NB78 1-822): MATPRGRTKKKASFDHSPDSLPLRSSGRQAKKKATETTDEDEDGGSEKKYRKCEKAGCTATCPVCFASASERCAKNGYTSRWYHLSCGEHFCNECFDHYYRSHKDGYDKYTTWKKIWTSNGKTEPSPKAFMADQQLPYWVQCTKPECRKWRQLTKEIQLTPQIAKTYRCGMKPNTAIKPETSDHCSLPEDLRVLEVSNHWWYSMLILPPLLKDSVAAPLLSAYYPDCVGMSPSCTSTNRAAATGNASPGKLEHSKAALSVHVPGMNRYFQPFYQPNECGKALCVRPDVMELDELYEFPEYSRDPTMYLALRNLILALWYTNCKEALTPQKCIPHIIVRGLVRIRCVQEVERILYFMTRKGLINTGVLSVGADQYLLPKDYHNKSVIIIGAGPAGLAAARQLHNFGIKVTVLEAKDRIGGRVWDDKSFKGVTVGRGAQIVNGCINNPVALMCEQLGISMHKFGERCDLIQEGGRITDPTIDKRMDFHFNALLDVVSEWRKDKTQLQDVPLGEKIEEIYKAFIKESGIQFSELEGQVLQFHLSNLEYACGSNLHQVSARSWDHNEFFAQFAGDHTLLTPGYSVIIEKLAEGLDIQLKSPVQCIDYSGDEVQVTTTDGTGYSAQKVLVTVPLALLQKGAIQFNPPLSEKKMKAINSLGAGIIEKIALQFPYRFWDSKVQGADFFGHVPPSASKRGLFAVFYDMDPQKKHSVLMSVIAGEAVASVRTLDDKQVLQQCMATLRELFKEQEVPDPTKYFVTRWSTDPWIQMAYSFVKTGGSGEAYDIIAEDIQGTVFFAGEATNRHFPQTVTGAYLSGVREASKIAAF
Nature of the assay: LSD2 enzymatic activity (FIG. 4). It is filed as biochemical. The text has this: Inhibition of LSD activity can be determined by a variety of both in vitro and in vivo methods known to one skilled in the art. For example, enzymatic activity can be determined in in vitro enzyme assay systems. In various aspects, the enzymatic activity of either LSD1 or LSD2 can be determined in a spectrophometric assay. Briefly, the assay is based on the multistep enzymatic reaction in which LSD1 or LSD2 first produces H2O2 during the demethylation of lysine 4 on a peptide corresponding to the first 21 amino acids of the N-terminal tail of histone H3. In the presence of horseradish peroxidase, the H2O2 produced reacts with ADHP to produce the highly fluorescent compound resorufin that can be analyzed with an excitation wavelength of 530-540 nm and an emission wavelength of 585-595 nm. The assay requires a source of LSD or LSD2 enzyme, either purified from natural sources (e.g. a tissue or cultured cells), isolated as a recombinantly expressed protein, or as a unpurified protein in whole cell extracts.

The subject of a further assay is Ewing's sarcoma cells. Nature of the assay: Cell viability with drug screening (CellTiter Glo, 72 hour). It is filed as cell-based. As to conditions: SK-N-MC, SKESI, A673 cells. How it is done: A hemocytometer count is performed to determine cell concentration. In a 96-well tissue culture plate, 2000 cells per well are plated for each drug concentration. Generally, 10 wells are done in duplicate. Then, the plates are placed in incubator overnight to allow cells to adhere to the plate (If suspension cells, proceed to the next step). Then, the desired drug concentrations are added to each well (ex. Serial dilutions 10 uM, 3 uM, 1 uM, […] . . . etc.). Generally, each drug concentration is made at 10× in media and then 10 uL of drug is diluted in 90 uL of cells to get the final desired concentration. Then, the cells are incubated at 37° C. for 72 hours; after 72 hours, 100 uL of Promega Cell Titer Glo is added, and allowed incubation at room temperature for 10 minutes. Finally, the plates are read using the Envision software. Data analysis is performed using Graph Pad Prism 6.
FIGS. 5-7 depict graphs showing 72 hour time course cell viability of Ewing's sarcoma using CellTiter Glo (Promega). The tested compound was 10054Z and the control compound was 2606 which has the following structure: […]
(In general: Cellular ATP, detected with luciferase, serves as a proxy for viable cell number.)

Consider 11 compounds from patent publication US20170001970A1, “Substituted benzohydrazide analogs as histone demethylase inhibitors” (University of Utah Research Foundation, priority 2015, published 2017).

Broadly, the IC50 is the concentration at which inhibition is half-maximal. Lower therefore signals greater potency. Consider `CC1C/C(=N\NC(=O)c2cccc(S(=O)(=O)N3CCOCC3)c2)c2c(O)ccc(Cl)c21` (stereo not drawn) [SP-10055_E, (E)-N′-(4-chloro-7-hydroxy-3-methyl-2,3-dihydro-1H-inden-1-ylidene)-3-(morpholinosulfonyl)benzohydrazide], for which the concentration for half-maximal inhibition (IC50) against LSD1 is 0.078 µM.
Consider `CN1CCN(S(=O)(=O)c2cccc(C(=O)N/N=C3\CCc4c(Cl)ccc(O)c43)c2)CC1` [SP-10041_E, (E)-N′-(4-chloro-7-hydroxy-2,3-dihydro-1H-inden-1-ylidene)-3-((4-methylpiperazin-1-yl)sulfonyl)benzohydrazide], for which the “inhibition of LSD2 activity (in words, FIG. 4)” value against LSD2 was “significantly inhibit”.
On LSD1, `CCN1CCN(S(=O)(=O)c2cccc(C(=O)NN=C3CCc4c(Cl)cc(C)c(O)c43)c2)CC1` (stereo in doubt) [SP-10047_Z, (E)-N′-(4-chloro-7-hydroxy-6-methyl-2,3-dihydro-1H-Inden-1-ylidene)-3-((4-ethylpiperazin-1-yl)sulfonyl)benzohydrazide] gave an IC50 of 0.426 µM.
`CN1CCN(S(=O)(=O)c2cccc(C(=O)N/N=C3\CCc4cc(O)cc(Cl)c43)c2)CC1` [SP-10043-E, (E)-N′-(7-chloro-5-hydroxy-2,3-dihydro-1H-inden-1-ylidene)-3-((4-methylpiperazin-1-yl)sulfonyl)benzohydrazide] gave an IC50 at LSD1 above 10 µM.
As for `Cc1ccc(Cl)c2c1/C(=N/NC(=O)c1cccc(S(=O)(=O)N3CCN(C)CC3)c1)CC2` [SP-10061_E, (E)-N′-(4-chloro-7-methyl-2,3-dihydro-1H-inden-1-ylidene)-3-((4-methylpiperazin-1-yl)sulfonyl)benzohydrazide], the IC50 against LSD1 came out at 30.4 µM.
With `CN1CCN(S(=O)(=O)c2cccc(C(=O)N/N=C3/CCc4c(F)ccc(O)c43)c2)CC1` [SP-10044_Z], at LSD1, the IC50 is 0.403 µM.
`Cc1cc(Cl)c2c(c1O)/C(=N/NC(=O)c1cccc(S(=O)(=O)N3CCC(C)CC3)c1)CC2` [SP-10046_E, (E)-N′-(4-chloro-7-hydroxy-6-methyl-2,3-dihydro-1H-inden-1-ylidene)-3-((4-methylpiperidin-1-yl)sulfonyl)benzohydrazide] returned a 50% inhibitory concentration (IC50) against LSD1 above 10 µM.
`CC1CC(=NNC(=O)c2cccc(S(=O)(=O)N3CCN(C)CC3)c2)c2c(O)ccc(Cl)c21` (stereo in doubt) [SP-10054_Z, (E)-N′-(4-chloro-7-hydroxy-3-methyl-2,3-dihydro-1H-inden-1-ylidene)-3-((4-methylpiperazin-1-yl)sulfonyl)benzohydrazide] displayed an IC50 at LSD1 of 0.029 µM. The “viability of Ewing's sarcoma cells (in words, FIGS. 5-7)” value in the assay with Ewing's sarcoma cells is reported as “significantly decrease the viability”.
`CC1CC(=NNC(=O)c2cccc(S(=O)(=O)N3CCOCC3)c2)c2c(O)ccc(Cl)c21` (stereo in doubt) [SP-10055_Z, (E)-N′-(4-chloro-7-hydroxy-3-methyl-2,3-dihydro-1H-inden-1-ylidene)-3-(morpholinosulfonyl)benzohydrazide] displayed a half-inhibitory concentration (IC50) at LSD1 of 0.418 µM.
For `CN1CCN(S(=O)(=O)c2cccc(C(=O)N/N=C3/CCc4c(Cl)ccc(O)c43)c2)CC1` [SP-10041_Z], the “inhibition of LSD2 activity (in words, FIG. 4)” value at LSD2 is listed as “significantly inhibit”.
Compound `CN1CCN(S(=O)(=O)c2cccc(C(=O)N/N=C3/CCc4cc(O)cc(Cl)c43)c2)CC1` [SP-10043_Z] came in with a half-inhibitory concentration (IC50) on LSD1 above 10 µM.
